Assay results published in patent US20090209568A1, “Spiro [Benzopyran] or Spiro [Benzofuran] Derivatives Which Inhibit the Sigma Receptor” (priority 2006, published 2009).

Columns and labels:
σ1-receptor = molecular target: T1, σ1-receptor (Cavia porcellus, UniProt Q60492); assay: Sigma-1 receptor radioligand binding, [3H](+)pentazocine (Version A / Version B); design: species or system guinea pig; settings: guinea pig brain membranes; for inhibition at 0.1 µM: compound 10^−7 M; for inhibition at 0.01 µM: compound 10^−8 M
T1 construct: guinea pig brains were homogenized in 10 vols; (w/v) of Tris-HCl 50 mM 0.32 M sucrose; from tissue; host or cells: guinea pig brain membranes
Procedure: Brain membrane preparation and binding assays for the σ1-receptor were performed as described (DeHaven-Hudkins et al., 1992) with some modifications. In brief, guinea pig brains were homogenized in 10 vols. (w/v) of Tris-HCl 50 mM 0.32 M sucrose, pH 7.4, with a Kinematica Polytron PT 3000 at 15000 r.p.m. for 30 s. The homogenate was centrifuged at 1000 g for 10 min at 4° C. and the supernatants collected and centrifuged again at 48000 g for 15 min at 4° C. The pellet was resuspended in 10 volumes of Tris-HCl buffer (50 mM, pH 7.4), incubated at 37° C. for 30 min, and centrifuged at 48000 g for 20 min at 4° C. Following this, the pellet was resuspended in fresh Tris-HCl buffer (50 mM, pH 7.4) and stored on ice until use.
Each assay tube contained 10 μL of [^3H](+)pentazocine (final concentration of 0.5 nM), 900 μL of the tissue suspension to a final assay volume of 1 mL and a final tissue concentration of approximately 30 mg tissue net weight/mL. Non-specific binding was defined by addition of a final concentration of 1 μM haloperidol. All tubes were incubated at 37° C. for 150 min before termination of the reaction by rapid filtration over Schleicher & Schuell GF 3362 glass fibre filters [previously soaked in a solution of 0.5% polyethylenimine for at least 1 h]. Filters were then washed with four times with 4 mL of cold Tris-HCl buffer (50 mM, pH 7.4). Following addition of scintillation cocktail, the samples were allowed to equilibrate overnight. The amount of bound radioactivity was determined by liquid scintillation spectrometry using a Wallac Winspectral 1414 liquid scintillation counter. Protein concentrations were determined by the method of Lowry et al. (1951).
In brief the σ1-receptor preparation was prepared from guinea pig brain. The brains were homogenized in 5 to 6 times of volume sucrose solution (0.32M) and homogenized. The homogenate was centrifuged at 2900 rpm, 4° C., 10 min). the supernatant was centrifuged again (23500×g, 4° C., 20 min). The pellet was resuspended in Tris-buffer, incubated for 30 min at room temperature and centrifuged f (23500×g, 4° C., 20 min). The pellet was resuspended in cold TRIS-buffer and homogenized. Then the protein content was measured (approx. 1.5 mg/mL) and the homogenate frozen at −80° C. for later use.
The radioligand used was [^3H]-(+)-Pentazocin in TRIS-buffer. In a volume of 200 μL 50 μL TRIS-buffer, 50 μL compound solution of varying concentration, 50 μL radioligand-solution (8 nM; resulting in 2 nM in the assay) and finally 50 μL of receptor preparation (approx. 1.5 mg/mL) were given into a well of a microplate equipped with a filter. The plate was closed and stirred for 2.5 h at 37° C. and 500 rpm. Following that the solvents were removed by a harvester through the filter. After rinsing with H2O the filter was measured in a scintillation counter ([^3H]-protocol).

[1] = tested on: capsaicin-induced mechanical allodynia; assay: Effect on capsaicin in development of mechanical allodynia (von Frey filaments); format: in vivo; settings: 16 mg/kg i.p., mice, 1 μg capsaicin into paw, von Frey mechanical stimulus
Procedure: This model uses the von-Frey Filaments and is a model to test the effects or symptoms of neuropathic pain, allodynia etc. […] The test protocol for all tests with von Frey filaments: After habituation mice were first treated with the test-compound (or solvent in controls). Then 1 μg capsaicin (1% DMSO) is injected into their paw resulting in developing pain in the effected paw. The effected paw is then treated with a mechanical stimulus and the latency time before the paw is withdrawn is measured.

T1 sequence (Q60492 whole entry): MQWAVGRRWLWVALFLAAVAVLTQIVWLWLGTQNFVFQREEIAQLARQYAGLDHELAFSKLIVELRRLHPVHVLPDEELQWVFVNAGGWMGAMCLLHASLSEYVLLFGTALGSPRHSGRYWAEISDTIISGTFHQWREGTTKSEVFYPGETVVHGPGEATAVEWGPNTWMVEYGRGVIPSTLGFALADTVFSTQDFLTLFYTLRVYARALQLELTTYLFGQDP

inhibition at 0.1 µM (σ1-receptor) [%] | inhibition at 0.01 µM (σ1-receptor) [%] | SMILES | % of pain relief [1] [%]
52 | 29 | CCCCN1CCC2(C1)OC(OC)Cc1ccccc12 (mixture of isomers) [Example 22, cis/trans-1′-Butyl-3-methoxy-3,4-dihydrospiro[[2]benzopyran-1,3′-pyrrolidin]] | 45.67±9.62
88 | 22.2 | COC1OC2(CCN(Cc3ccccc3)C2)c2ccccc21 (mixture of isomers) [Example 25, cis/trans-1′-Benzyl-3-methoxy-3H-spiro[[2]benzofuran-1,3′-pyrrolidin]] | 44.28±9.49
